Data published in PubChem BioAssay AID248 (DTP/NCI, 2004).
Where “and” joins values, the source holds several entries; their conditions need not be identical. Equal values may be shown once. Toxic doses and inconclusive results are not listed. No stated cut-off is given here; in the data, active means T/C of 150% or more; inactive means T/C below 125%.

System: L1210 leukemia ip in BDF1 mice, survival T/C
Test: NCI In Vivo Anticancer Drug Screen. Data for tumor model L1210 Leukemia (intraperitoneal) in B6D2F1 (BDF1) mice
Conditions: endpoint: mean survival time, higher = longer survival
Summary of the method: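 Survival endpoint. Drug-treated group vs vehicle group, expressed as T divided by C. Tumor passaged by transplantation.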

[1] = dose: 25.0 mg/kg/injection, schedule: Q01DX009 (ip), vehicle: saline with Tween-80
[2] = dose: 50.0 mg/kg/injection, schedule: Q01DX009 (ip), vehicle: saline with Tween-80
[3] = dose: 100.0 mg/kg/injection, schedule: Q01DX009 (ip), vehicle: saline with Tween-80
[4] = dose: 100.0 mg/kg/injection, schedule: Q04DX003 (ip), vehicle: saline with Tween-80
[5] = dose: 100.0 mg/kg/injection, schedule: Q04DX003 (ip), vehicle: saline
[6] = dose: 200.0 mg/kg/injection, schedule: Q04DX003 (ip), vehicle: saline
[7] = dose: 400.0 mg/kg/injection, schedule: Q04DX003 (ip), vehicle: saline
[8] = dose: 100.0 mg/kg/injection, schedule: Q01DX009 (ip), vehicle: Klucel (hydroxypropylcellulose) (HPC)
[9] = dose: 100.0 mg/kg/injection, schedule: Q04DX003 (ip), vehicle: other
[10] = dose: 200.0 mg/kg/injection, schedule: Q01DX009 (ip), vehicle: Klucel (hydroxypropylcellulose) (HPC)
[11] = dose: 200.0 mg/kg/injection, schedule: Q04DX003 (ip), vehicle: other
[12] = dose: 400.0 mg/kg/injection, schedule: Q01DX009 (ip), vehicle: Klucel (hydroxypropylcellulose) (HPC)
[13] = dose: 200.0 mg/kg/injection, schedule: Q04DX003 (ip), vehicle: saline with Tween-80
[14] = dose: 10.0 mg/kg/injection, schedule: Q01DX001 (ip), vehicle: saline
[15] = dose: 20.0 mg/kg/injection, schedule: Q01DX001 (ip), vehicle: saline
[16] = dose: 400.0 mg/kg/injection, schedule: Q04DX003 (ip), vehicle: saline with Tween-80
[17] = dose: 100.0 mg/kg/injection, schedule: Q04DX002 (ip), vehicle: saline
[18] = dose: 100.0 mg/kg/injection, schedule: Q04DX002 (ip), vehicle: saline with Tween-80
[19] = dose: 200.0 mg/kg/injection, schedule: Q04DX002 (ip), vehicle: saline with Tween-80

Measured: T/C

C/C(=N/N=C(N)N)c1ccc(/C(C)=N/N=C(N)N)cc1
inactive: dose: 3.75 mg/kg/injection, schedule: Q01DX Z (ip), vehicle: saline 95 % of control | dose: 7.5 mg/kg/injection, schedule: Q01DX Z (ip), vehicle: carboxymethylcellulose (CMC) 100 % of control | dose: 7.5 mg/kg/injection, schedule: Q01DX Z (ip), vehicle: saline 101 % of control | dose: 15.0 mg/kg/injection, schedule: Q01DX Z (ip), vehicle: carboxymethylcellulose (CMC) 107 % of control | dose: 15.0 mg/kg/injection, schedule: Q01DX Z (ip), vehicle: saline 110 % of control and 112 % of control | dose: 30.0 mg/kg/injection, schedule: Q01DX Z (ip), vehicle: carboxymethylcellulose (CMC) 117 % of control | dose: 30.0 mg/kg/injection, schedule: Q01DX Z (ip), vehicle: saline 112 % of control | dose: 480.0 mg/kg/injection, schedule: Q01DX009 (oral), vehicle: saline 93 % of control | dose: 960.0 mg/kg/injection, schedule: Q01DX009 (oral), vehicle: saline 93 % of control

c1ccc2c(c1)sc1cc3ccncc3cc12
inactive: dose: 75.0 mg/kg/injection, schedule: Q01DX001 (ip), vehicle: other 110 % of control | dose: 150.0 mg/kg/injection, schedule: Q01DX001 (ip), vehicle: other 101 % of control | dose: 300.0 mg/kg/injection, schedule: Q01DX001 (ip), vehicle: other 107 % of control

O=c1oc(-c2ccc(Cl)cc2)nc2cc(Cl)ccc12
inactive: [1] 93 % of control | [2] 97 % of control | [3] 93 % of control

COC(=O)CCC1([N+](=O)[O-])CCCCC1
inactive: dose: 16.5 mg/kg/injection, schedule: Q01DX009 (ip), vehicle: saline with Tween-80 96 % of control | [1] 94 % of control | dose: 25.0 mg/kg/injection, schedule: Q04DX003 (ip), vehicle: saline with Tween-80 100 % of control | dose: 37.5 mg/kg/injection, schedule: Q01DX009 (ip), vehicle: saline with Tween-80 99 % of control | [2] 100 % of control | dose: 50.0 mg/kg/injection, schedule: Q04DX003 (ip), vehicle: saline with Tween-80 102 % of control | [3] 94 % of control | [4] 105 % of control

O=C1/C(=C\c2ccccc2)Cc2cc3c(cc21)OCO3
inactive: [5] 105 % of control | [6] 113 % of control | [7] 102 % of control

CC1(C(Cl)Cl)C=CC(=O)C=C1
inactive: [8] 90 % of control | [9] 103 % of control | [10] 87 % of control | [11] 111 % of control | [12] 106 % of control | dose: 400.0 mg/kg/injection, schedule: Q04DX003 (ip), vehicle: other 95 % of control

CCOC(=O)c1ccc2c3c(ccc(C(=O)OCC)c13)C=C2
inactive: dose: 100.0 mg/kg/injection, schedule: Q01DX001 (ip), vehicle: saline 88 % of control | dose: 200.0 mg/kg/injection, schedule: Q01DX001 (ip), vehicle: saline 96 % of control | dose: 400.0 mg/kg/injection, schedule: Q01DX001 (ip), vehicle: saline 100 % of control

BrCc1ccc(CBr)c(Br)c1
inactive: dose: 25.0 mg/kg/injection, schedule: Q01DX009 (ip), vehicle: Klucel (hydroxypropylcellulose) (HPC) 108 % of control | dose: 50.0 mg/kg/injection, schedule: Q01DX009 (ip), vehicle: Klucel (hydroxypropylcellulose) (HPC) 98 % of control | dose: 50.0 mg/kg/injection, schedule: Q04DX003 (ip), vehicle: Klucel (hydroxypropylcellulose) (HPC) 104 % of control | dose: 100.0 mg/kg/injection, schedule: Q04DX003 (ip), vehicle: Klucel (hydroxypropylcellulose) (HPC) 95 % of control

CC(C1CCC/C(=N\NC(N)=O)C1)[N+](=O)[O-] (stereo not given)
inactive: [1] 95 % of control | [2] 104 % of control | [3] 89 % of control | [4] 90 % of control | [13] 98 % of control

COC(=O)CCS
inactive: [14] 101 % of control | [15] 101 % of control | dose: 40.0 mg/kg/injection, schedule: Q01DX001 (ip), vehicle: saline 96 % of control

COc1ccc(OCC(=O)O)cc1
inactive: [4] 102 % of control | [13] 107 % of control | [16] 107 % of control

CC(C)(N)CBr
inactive: [17] 100 % of control | dose: 200.0 mg/kg/injection, schedule: Q04DX002 (ip), vehicle: saline 113 % of control | dose: 400.0 mg/kg/injection, schedule: Q04DX002 (ip), vehicle: saline 95 % of control

CCOC(=O)c1cc(Cl)nc2ccc3ccccc3c12
inactive: [8] 101 % of control | [10] 97 % of control | [12] 96 % of control

CC(C)SCC(NC(=O)/C=C/c1ccccc1)C(=O)O (stereo not given)
inactive: dose: 50.0 mg/kg/injection, schedule: Q04DX003 (ip), vehicle: other 97 % of control | [9] 101 % of control | [11] 95 % of control

CCc1ccc(NC(=O)Nc2ccc(Cl)c(Cl)c2)cc1
inactive: [8] 90 % of control | [10] 103 % of control | [12] 103 % of control

COc1ccc(NC(=O)Nc2cc(Cl)ccc2OC)c(Cl)c1
inactive: dose: 100.0 mg/kg/injection, schedule: Q01DX009 (ip), vehicle: saline 100 % of control | [5] 104 % of control | dose: 200.0 mg/kg/injection, schedule: Q01DX009 (ip), vehicle: saline 93 % of control | [6] 98 % of control | dose: 400.0 mg/kg/injection, schedule: Q01DX009 (ip), vehicle: saline 88 % of control | [7] 101 % of control

Cc1c(Cl)cccc1NC(=O)OC/C=C/c1ccccc1
inactive: dose: 100.0 mg/kg/injection, schedule: Q01DX001 (ip), vehicle: saline with Tween-80 93 % of control | [3] 101 % of control and 105 % of control | [18] 101 % of control and 114 % of control | [4] 91 % of control | dose: 200.0 mg/kg/injection, schedule: Q01DX001 (ip), vehicle: saline with Tween-80 93 % of control | dose: 200.0 mg/kg/injection, schedule: Q01DX009 (ip), vehicle: saline with Tween-80 94 % of control and 101 % of control | [19] 96 % of control and 106 % of control | [13] 93 % of control | dose: 400.0 mg/kg/injection, schedule: Q01DX001 (ip), vehicle: saline with Tween-80 88 % of control | dose: 400.0 mg/kg/injection, schedule: Q01DX009 (ip), vehicle: saline with Tween-80 94 % of control and 101 % of control | dose: 400.0 mg/kg/injection, schedule: Q04DX002 (ip), vehicle: saline with Tween-80 93 % of control and 97 % of control | [16] 98 % of control

[Cl][Hg][S]C1CCCC1
inactive: dose: 5.0 mg/kg/injection, schedule: Q01DX001 (ip), vehicle: saline 106 % of control | [14] 101 % of control | [15] 101 % of control

NC(CSSCC(NC(=O)CNC(=O)OCc1ccccc1)C(=O)O)C(=O)O (stereo not given)
inactive: dose: 100.0 mg/kg/injection, schedule: Q01DX001 (ip), vehicle: Klucel (hydroxypropylcellulose) (HPC) 93 % of control | dose: 200.0 mg/kg/injection, schedule: Q01DX001 (ip), vehicle: Klucel (hydroxypropylcellulose) (HPC) 90 % of control | dose: 400.0 mg/kg/injection, schedule: Q01DX001 (ip), vehicle: Klucel (hydroxypropylcellulose) (HPC) 98 % of control

CN(CCNC(=O)c1ccccc1C(=O)O)c1ccccc1
inactive: [18] 100 % of control | [19] 95 % of control

C(CCSC1=NCCN1)CSC1=NCCN1
inactive: [17] 105 % of control

O=c1[nH]nc(SCc2ccccc2)c(=S)[nH]1
inactive: dose: 100.0 mg/kg/injection, schedule: Q01DX001 (ip), vehicle: other 119 % of control | dose: 177.0 mg/kg/injection, schedule: Q01DX001 (ip), vehicle: other 104 % of control | dose: 200.0 mg/kg/injection, schedule: Q01DX005 (ip), vehicle: other 92 % of control | dose: 266.0 mg/kg/injection, schedule: Q01DX001 (ip), vehicle: other 101 % of control | dose: 300.0 mg/kg/injection, schedule: Q01DX005 (ip), vehicle: other 95 % of control
active: dose: 200.0 mg/kg/injection, schedule: Q01DX001 (ip), vehicle: other 156 % of control
